# Read-outs that look alike come from different tables or passages of the source.
# Columns and labels:
# [1] = target: T1, Cytosol Progesterone Receptor of the Estrogen-primed Immature Rabbit Uterus (Oryctolagus cuniculus, UniProt P06186); assay: Relative binding affinity for progesterone receptor (competition with 3H-progesterone); parameters: species or system rabbit (New Zealand White); settings: 16-18 hour incubation, progesterone = 100
# T1 construct: cytosol progesterone receptor of the estrogen-primed immature rabbit uterus; tissue Dutchland Laboratories, Inc., Denver, Pa (animals); host or cells: uterus cytosol of estradiol-treated immature female New Zealand White rabbits
# T1 sequence (P06186 1-930): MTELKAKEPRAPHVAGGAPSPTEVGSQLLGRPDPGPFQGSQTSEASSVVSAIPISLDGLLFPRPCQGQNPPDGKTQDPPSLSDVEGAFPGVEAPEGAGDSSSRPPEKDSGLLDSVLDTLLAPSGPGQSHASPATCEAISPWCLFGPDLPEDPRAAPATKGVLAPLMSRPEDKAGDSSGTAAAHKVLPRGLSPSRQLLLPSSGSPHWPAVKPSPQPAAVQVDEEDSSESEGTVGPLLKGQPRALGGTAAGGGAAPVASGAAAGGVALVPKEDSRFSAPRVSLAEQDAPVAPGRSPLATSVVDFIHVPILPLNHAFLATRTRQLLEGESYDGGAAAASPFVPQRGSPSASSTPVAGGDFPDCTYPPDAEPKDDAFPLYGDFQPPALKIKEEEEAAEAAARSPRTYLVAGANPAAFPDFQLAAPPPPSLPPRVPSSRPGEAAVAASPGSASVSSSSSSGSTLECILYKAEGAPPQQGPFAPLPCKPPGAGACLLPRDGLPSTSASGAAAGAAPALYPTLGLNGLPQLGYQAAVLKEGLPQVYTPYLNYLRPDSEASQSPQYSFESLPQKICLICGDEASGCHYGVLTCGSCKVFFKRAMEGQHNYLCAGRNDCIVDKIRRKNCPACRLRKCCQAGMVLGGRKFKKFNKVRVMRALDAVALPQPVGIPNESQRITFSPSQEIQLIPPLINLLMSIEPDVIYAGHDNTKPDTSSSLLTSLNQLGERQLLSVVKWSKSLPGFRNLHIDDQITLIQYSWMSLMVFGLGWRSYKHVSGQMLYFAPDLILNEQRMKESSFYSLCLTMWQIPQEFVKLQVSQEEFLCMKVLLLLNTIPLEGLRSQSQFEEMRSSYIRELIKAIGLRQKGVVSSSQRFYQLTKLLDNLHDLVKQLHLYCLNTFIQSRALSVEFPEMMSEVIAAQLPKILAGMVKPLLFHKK
# Description: RBA values recorded at 0° C. after short incubation times (e.g., 2 hr) mainly reflect differences in the association rate constants of the competing ligands, whereas those measured after long incubation times (e.g., 16 to 24 hr) and/or higher temperatures predominantly are influenced by differences in the dissociation rate constants of the competing ligands. RBA's determined after short incubation times primarily reflect the association of the competitor compared to the natural hormone. Conversely, RBA's measured after long incubation times reflect the dissociation rate of the competitor compared to the natural hormone.
# The assay components are combined, allowed to equilibrate, and unbound radioactivity removed by charcoal adsorption.
# Animal species. Immature female New Zealand White rabbits weighing 0.8 to 1.0 kg (Dutchland Laboratories, Inc., Denver, Pa).
# Pretreatment. Subcutaneous treatment with 15 μg 17β-estradiol/0.6 ml sesame oil each morning (0830 to 0930 hr) for three days. Animals sacrificed 24 hr after final injection.
# Tissue. Uterus; each uterus weighed about 1.0 g and two or three uteri were pooled for each assay.
# Buffer. (A) 0.01M TES, pH 7.4, 1 mM EDTA, 0.012M thioglycerol and 30% glycerol for cytosol preparation and ^3 H-steroid, unlabeled hormone and compound solutions. (B) 0.01M TES, pH 7.4, 1 mM EDTA and 0.012M thioglycerol for charcoal solution.
# Homogenization. Five or six 5-second bursts with 30 second cooling periods between bursts using Brinkman Polytron Pt. 10 at 3.5 rheostat setting.
# Temperature. 0°-4° C. for all steps.
# Centrifugation. 45,000 rpm for 1 hr, 50 Ti rotor, Beckman L8-80 ultracentrifuge.
# Incubation. 16-18 hr at 4°-6° C.
# Concentations. 1×10^-10 M to 1×10^-5 M (7 concentrations).
# Method. Charcoal adsorption method used to remove unbound radioactivity. Five-tenths ml of dextran-coated charcoal (0.5% Norit A and 0.05% dextran T-70) added to all tubes except total radioactivity tubes (0.5 ml buffer [B] added), tubes vortexed 3-5 sec, allowed to sit for 10 minutes and centrifuged 10 minutes at 2000 rpm in Beckman TJ-6 centrifuge at 0°-4° C.
# Data Interpretation. […] The relative binding affinity (RBA) of each compound was calculated by using the following equation. [formula] where
# [2] = tested on: uterine endometrium of estrone-primed immature rabbits; assay: Clauberg assay (progestational activity, McPhail); format: in vivo, rabbit (New Zealand White); settings: oral; for McPhail Index (0-4) (X ± S.D.): 0 none, 4 maximal
# [3] = tested on: estrogen-primed immature rabbits; settings: cited from earlier work
# [4] = tested on: endometrium of estrogen-primed ovariectomized or climacteric women; settings: oral; cited from earlier work
# [5] = general knowledge; cited from earlier work
# [6] = tested on: androgen target organs of castrate immature male rats; assay: Anti-androgenic activity in the castrate immature rat assay; format: in vivo
# Description: The oral anti-androgenic activity of 6-methyl-6-dehydro-17α-ethynylprogesterone was evaluated in the castrate immature male rat assay [Lerner et al., Proc. Soc. […] The assay is briefly described in the footnotes to Table 11.
# *This assay employs castrate immature rats. For methods refer to Lerner,
# L. J., A. Bianchi and A. Borman, Proc. Soc.
# **Groups of rats (7/group) were given daily injections of 0.3 ml sesame
# oil (control) or compound (in 0.3 ml sesame oil) for 7 days. Some groups
# also concurrently received progestational compounds by the sc or oral
# route of administration in order to evaluate antiandrogenic activity. One
# day after the final doses, the animals were sacrificed and the androgen
# target organs indicated were weighed.
# ***Statistically significant (p < 0.05) lower organ weights versus the
# testosterone, sc, (400 μg/rat/day) group as determined by Analysis of
# Variance coupled with Duncan's Multiple Range Test.
# [7] = 100 μg/rabbit daily, listed as 6α-Methyl-17α-acetoxyprogesterone
# [8] = oral 25 μg/rat daily + testosterone sc 400
# [9] = oral 100 μg/rat daily + testosterone sc 400
# [10] = oral 400 μg/rat daily + testosterone sc 400
smiles,measurement,setting,value
"CC(=O)O[C@]1(C(C)=O)CC[C@H]2[C@@H]3C[C@H](C)C4=CC(=O)CC[C@]4(C)[C@H]3CC[C@@]21C [Medroxyprogesterone Acetate, 6α-Methyl-17α-acetoxyprogesterone, reference compound]",RBA,[1]; Assay 4,57%
same,RBA,[1]; Assay 5,133%
same,RBA,[1]; Assay 6,143%
same,Uterine Weight (X ± S.D.),[2]; 5 μg/rabbit daily,1.08 ± 0.01 g
same,McPhail Index (0-4) (X ± S.D.),[2]; 5 μg/rabbit daily,0.29 ± 0.06
same,Uterine Weight (X ± S.D.),[2]; 10 μg/rabbit daily,1.35 ± 0.34 g
same,McPhail Index (0-4) (X ± S.D.),[2]; 10 μg/rabbit daily,0.71 ± 0.06
same,Uterine Weight (X ± S.D.),[2]; 25 μg/rabbit daily,1.12 ± 0.19 g
same,McPhail Index (0-4) (X ± S.D.),[2]; 25 μg/rabbit daily,0.25 ± 0.10
same,Uterine Weight (X ± S.D.),[2]; 50 μg/rabbit daily,2.82 ± 0.92 g
same,McPhail Index (0-4) (X ± S.D.),[2]; 50 μg/rabbit daily,3.00 ± 0.83
same,Uterine Weight (X ± S.D.),[2]; 100 μg/rabbit daily,2.65 ± 0.35 g
same,McPhail Index (0-4) (X ± S.D.),[2]; 100 μg/rabbit daily,3.90 ± 0.13
same,McPhail Index (0-4) (X ± S.D.),[2]; [7],2.66 ± 1.10
same,Uterine Weight (X ± S.D.),[2]; [7],2.11 ± 1.28 g
same,Uterine Weight (X ± S.D.),[2]; 200 μg/rabbit daily,3.30 ± 0.41 g
same,McPhail Index (0-4) (X ± S.D.),[2]; 200 μg/rabbit daily,4.00 ± 0.00
same,Uterine Weight (X ± S.D.),[2]; 400 μg/rabbit daily,3.73 ± 0.61 g
same,McPhail Index (0-4) (X ± S.D.),[2]; 400 μg/rabbit daily,4.00 ± 0.00
same,"Threshold or effective dose, Clauberg Assay",[3]; oral,0.01-0.03 mg/animal
same,"Threshold or effective dose, Clauberg Assay",[3]; s.c. (i.m.),0.01-0.03 mg/animal
same,"Threshold or effective dose, Kaufman Assay",[4],40-70 mg/cycle
same,"oral progestational activity, in words",[5],potent orally active progestational compounds
"CC(=O)O[C@]1(C(C)=O)CC[C@H]2[C@@H]3C=C(C)C4=CC(=O)CC[C@]4(C)[C@H]3CC[C@@]21C [Megestrol Acetate, 6-Methyl-6-dehydro-17α-acetoxyprogesterone]",Levator Ani weight (X ± S.D.),[6]; [8],50 ± 8 mg
same,Seminal Vesicles weight (X ± S.D.),[6]; [8],125 ± 23 mg
same,Ventral Prostate weight (X ± S.D.),[6]; [8],42 ± 20 mg
same,Levator Ani weight (X ± S.D.),[6]; [9],55 ± 12 mg
same,Seminal Vesicles weight (X ± S.D.),[6]; [9],128 ± 36 mg
same,Ventral Prostate weight (X ± S.D.),[6]; [9],54 ± 13 mg
same,Levator Ani weight (X ± S.D.),[6]; [10],65 ± 12 mg
same,Seminal Vesicles weight (X ± S.D.),[6]; [10],120 ± 21 mg
same,Ventral Prostate weight (X ± S.D.),[6]; [10],48 ± 15 mg
same,"anti-androgenic activity, in words","[6]; with testosterone sc 400 μg/rat/day, doses up to 400 μg/rat/day (progestagen oral; progesterone sc)",significant anti-androgenic activity
same,"Threshold or effective dose, Clauberg Assay",[3]; oral,0.03 mg/animal
same,"Threshold or effective dose, Clauberg Assay",[3]; s.c. (i.m.),0.01-0.03 mg/animal
same,"Threshold or effective dose, Kaufman Assay",[4],35-50 mg/cycle
same,"oral progestational activity, in words",[5],potent orally active progestational compounds
C#C[C@]1(O)CC[C@H]2[C@@H]3CCC4=CC(=O)CC[C@@H]4[C@H]3CC[C@@]21C [Norethisterone],"Threshold or effective dose, Clauberg Assay",[3]; s.c. (i.m.),0.1 mg/animal
same,"Threshold or effective dose, Kaufman Assay",[4],100-150 mg/cycle
C#C[C@]1(O)CC[C@H]2[C@@H]3CCC4=C(CCC(=O)C4)[C@H]3CC[C@@]21C [Norethynodrel],"Threshold or effective dose, Clauberg Assay",[3]; oral,0.3 mg/animal
same,"Threshold or effective dose, Clauberg Assay",[3]; s.c. (i.m.),0.3 mg/animal
same,"Threshold or effective dose, Kaufman Assay",[4],150-200 mg/cycle

# — patent US4512986A, “Progrestationally active steroids” (priority 1983, dated 1985)
